# In patent US5763442A, “Anti-parasitic activity” (Universiteit Van Pretoria, priority 1995, dated 1998):
# Experiments:
# Type in all cases: cell-based
# [1] = tested on: Plasmodium falciparum (Fab-9); assay: 3H-hypoxanthine uptake, chloroquine sensitive strain Fab-9; settings: read-out: PERCENTAGE INHIBITION (3H-hypoxanthine uptake)
# [2] = tested on: Plasmodium falciparum (Fab-9); assay: Microscopic parasitaemia, chloroquine sensitive strain Fab-9 (reversal of chloroquine resistance); settings: for Percentage red blood cells infected with P. falciparum (Fab-9): 24 h
# Description: (§1) The activity of riminophenazines to reverse chloroquine resistance in Plasmodium falciparum was tested in the following manner:
# (§2) A preliminary series of experiments were carried out using two laboratory strains of P. falciparum (RB-1 and Fab-9). These strains were obtained from the Medical Research Council, Durban, where they were characterised as being either mildly resistant or sensitive to chloroquine. The isolates were maintained in suspension culture in known manner (as described by Freese J A, Markus M B and Golenser J, 1991; Bulletin of the World Health Organization 69: 707-712).
# (§3) Infected erythrocytes were diluted with human O-positive red blood cells to a parasitaemia of 0.2-0.9% and suspended to 3% in RPMI containing 44 mg/l hypoxanthine and 10% human type O serum. Aliquots (100 μl) of the suspension were dispensed into the wells of 96-well microtitre plates. To these suspensions 100 μl of the medium were added containing either chloroquine or B669 alone or in combination. The final drug concentrations were 31, 62, 125, 250 500 and 1000 nM for chloroquine and 0.125, 0.25, 0.5 and 1.0 μg/ml for B669. Relevant solvent controls were included. The plates were incubated for 24 hours at 38° C. in a desiccator gassed with 5% O2, 5% CO2 and 90% N2. Thin blood smears were prepared from each well, stained with Giemsa stain and the percentage of red blood cells infected by at least one parasite determined microscopically.
# [3] = tested on: Plasmodium falciparum (RB-1); assay: Microscopic parasitaemia, chloroquine resistant strain RB-1 (reversal of chloroquine resistance); settings: for Percentage red blood cells infected with P. falciparum (RB-1): 24 h
# Description: as §1, §2, §3
# [4] = tested on: Plasmodium falciparum (RB-9); assay: 3H-hypoxanthine uptake, chloroquine resistant strain (RB-9 [sic])
# Description: The following experiment was done to confirm previous results which were obtained microscopically and details of which are set out in Example 1.
# For this experiment the same two strains of P. falciparum, as used in Example 1 (RB-1 and Fab-9) were again used. Infected erythrocytes were diluted with human O-positive red blood cells to a parasitaemia of 0.2-0.9% and suspended to 3% in RPMI containing 44 mg/l hypxanthine and 10% human type serum. Aliquots (100 μl) of the suspension were dispensed into the wells of 96-well microtitre plates. To these suspensions 100 μl of the medium were added containing either chloroquine or B669 alone or a combination of chloroquine and B669. Relevant solvent controls were included. Negative control wells were also included containing uninfected red blood cells. The plates were incubated at 38° C. in a desiccator gassed with 5% O2, 5% CO2 and 90% N2. After 24 hours 100 μl culture medium of each well was replaced with […] of hypoxathine--free medium containing 10% human serum and 0,5μ Ci^3 H-hypoxanthine and incubated for a further 18 hours. The contents of the wells were then harvested on to glass fibre filters. The filters were washed with distilled water, dried, haemoglobin dissolved in a sodium bicarbonate solution and placed in scintillation vials containing 4 ml scintillation fluid and counted for 5 min in a liquid scintillation counter.
# The percentage inhibition was calculated as follows: [formula] where CPM was the mean of two values of counts per minute for each treatment.
# [5] = B669 0.125 μg/ml + chloroquine 500 nM
# [6] = B669 0.25 μg/ml + chloroquine 31 nM
# [7] = B669 0.25 μg/ml + chloroquine 500 nM, *parasites morphologically abnormal
# [8] = B669 1.0 μg/ml alone, *parasites morphologically abnormal
# [9] = Plasmodium falciparum, read-out: PERCENTAGE INHIBITION (3H-hypoxanthine uptake)
smiles,measurement,setting,value
"c1ccc(Nc2cc3nc4ccccc4n(-c4ccccc4)c-3cc2=NC2CCCCC2)cc1 [Compound B669, N,5-bis(phenyl)-3,5-dihydro-3-(cyclohexylimino)-2-phenazinamine]",inhibition at 0.125 µg/mL,[1],29.8%
same,inhibition at 0.25 µg/mL,[1],10.4%
same,inhibition at 0.5 µg/mL,[1],41.7%
same,inhibition at 1 µg/mL,[1],46.6%
same,Percentage red blood cells infected with P. falciparum (Fab-9),[2]; B669 0.125 μg/ml + chloroquine 31 nM,3.9%
same,Percentage red blood cells infected with P. falciparum (Fab-9),[2]; [5],0.9%
same,Percentage red blood cells infected with P. falciparum (Fab-9),[2]; B669 0.125 μg/ml alone,4.0%
same,Percentage red blood cells infected with P. falciparum (Fab-9),[2]; [6],3.1%
same,Percentage red blood cells infected with P. falciparum (Fab-9),[2]; B669 0.25 μg/ml + chloroquine 125 nM,2.9%
same,Percentage red blood cells infected with P. falciparum (Fab-9),[2]; [7],0.1%
same,Percentage red blood cells infected with P. falciparum (Fab-9),[2]; B669 0.25 μg/ml alone,4.4%
same,Percentage red blood cells infected with P. falciparum (Fab-9),"[2]; B669 0.5 μg/ml + chloroquine 31 nM, *parasites morphologically abnormal",2.7%
same,Percentage red blood cells infected with P. falciparum (Fab-9),[2]; B669 0.5 μg/ml + chloroquine 125 nM,3.0%
same,Percentage red blood cells infected with P. falciparum (Fab-9),"[2]; B669 0.5 μg/ml + chloroquine 500 nM, *parasites morphologically abnormal",0.1%
same,Percentage red blood cells infected with P. falciparum (Fab-9),[2]; B669 0.5 μg/ml alone,3.0%
same,Percentage red blood cells infected with P. falciparum (Fab-9),[2]; B669 1.0 μg/ml + chloroquine 31 nM,2.9%
same,Percentage red blood cells infected with P. falciparum (Fab-9),[2]; B669 1.0 μg/ml + chloroquine 125 nM,0.9%
same,Percentage red blood cells infected with P. falciparum (Fab-9),"[2]; B669 1.0 μg/ml + chloroquine 500 nM, *parasites morphologically abnormal",0.1%
same,Percentage red blood cells infected with P. falciparum (Fab-9),[2]; [8],4.1%
same,direct effect on parasite morphology,[2]; B669 alone 1.0 μg/ml,morphological deterioration of the parasites was observed
same,percentage parasitaemia versus untreated control systems,[2]; B669 alone 1.0 μg/ml,did not differ from the untreated control systems
same,effect on sensitivity of chloroquine sensitive strain to chloroquine,[2]; microscopy,did not increase the sensitivity
same,"increase of sensitivity to chloroquine, chloroquine resistant strain","[3]; 125 nM chloroquine, 0.125 μg/ml B669",up to two fold
same,"increase of sensitivity to chloroquine, chloroquine resistant strain","[3]; 500 nM chloroquine, 0.25 μg/ml B669",up to three fold
same,Percentage red blood cells infected with P. falciparum (RB-1),"[3]; B669 0.125 μg/ml + chloroquine 125 nM, *parasites morphologically abnormal",1.6%
same,Percentage red blood cells infected with P. falciparum (RB-1),[3]; [5],1.3%
same,Percentage red blood cells infected with P. falciparum (RB-1),[3]; B669 0.125 μg/ml alone,3.6%
same,Percentage red blood cells infected with P. falciparum (RB-1),[3]; [6],3.9%
same,Percentage red blood cells infected with P. falciparum (RB-1),"[3]; B669 0.25 μg/ml + chloroquine 62 nM, *parasites morphologically abnormal",2.8%
same,Percentage red blood cells infected with P. falciparum (RB-1),"[3]; B669 0.25 μg/ml + chloroquine 125 nM, *parasites morphologically abnormal",1.9%
same,Percentage red blood cells infected with P. falciparum (RB-1),[3]; [7],0.9%
same,Percentage red blood cells infected with P. falciparum (RB-1),[3]; B669 0.25 μg/ml + chloroquine 1000 nM,0%
same,Percentage red blood cells infected with P. falciparum (RB-1),[3]; B669 0.25 μg/ml alone,4.0%
same,Percentage red blood cells infected with P. falciparum (RB-1),"[3]; B669 0.5 μg/ml + chloroquine 250 nM, *parasites morphologically abnormal",1.4%
same,Percentage red blood cells infected with P. falciparum (RB-1),[3]; B669 0.5 μg/ml + chloroquine 1000 nM,0.1%
same,Percentage red blood cells infected with P. falciparum (RB-1),[3]; B669 0.5 μg/ml alone,3.2%
same,Percentage red blood cells infected with P. falciparum (RB-1),"[3]; B669 1.0 μg/ml + chloroquine 31 nM, *parasites morphologically abnormal",2.6%
same,Percentage red blood cells infected with P. falciparum (RB-1),"[3]; B669 1.0 μg/ml + chloroquine 250 nM, *parasites morphologically abnormal",0.1%
same,Percentage red blood cells infected with P. falciparum (RB-1),[3]; B669 1.0 μg/ml + chloroquine 1000 nM,0%
same,Percentage red blood cells infected with P. falciparum (RB-1),[3]; [8],2.6%
same,direct effect on parasite morphology,[3]; B669 alone 1.0 μg/ml,morphological deterioration of the parasites was observed
same,percentage parasitaemia versus untreated control systems,[3]; B669 alone 1.0 μg/ml,did not differ from the untreated control systems
same,"increase of sensitivity to chloroquine, chloroquine resistant strain","[4]; 250 nM chloroquine, 0.125-0.5 μg/ml B669",up to three fold
same,"increase of sensitivity to chloroquine, chloroquine resistant strain","[4]; 125 μM (so in the source) chloroquine, 0.5 and 1.0 μg/ml B669",up to ten fold
same,inhibition at 0.125 µg/mL,[4]; [9],0%
same,inhibition at 0.25 µg/mL,[4]; [9],0%
same,inhibition at 0.5 µg/mL,[4]; [9],0%
same,inhibition at 1 µg/mL,[4]; [9],0%
